Data published in PMC7321178 (Molecules, 2020).
Values joined by “and” are separate entries in the source; they are usually repeats but may differ in a detail not shown here. Equal entries are not always repeated. Where two headings read alike, the source gives them in different places.

What was measured:
[1] = target: T1, BuChE from equine serum (eqBuChE) (Equus caballus, UniProt P81908); assay: biochemical; settings: for inhibition at 10 µM: 10 µM compound concentration, mean ± standard deviation, read-out: % Inhibition +/- SD (eqBuChE)
T1 construct: BuChE obtained from equine serum (eqBuChE); purchased Sigma–Aldrich (Steinheim, Germany); host or cells: horse serum
T1 sequence (P81908 whole entry): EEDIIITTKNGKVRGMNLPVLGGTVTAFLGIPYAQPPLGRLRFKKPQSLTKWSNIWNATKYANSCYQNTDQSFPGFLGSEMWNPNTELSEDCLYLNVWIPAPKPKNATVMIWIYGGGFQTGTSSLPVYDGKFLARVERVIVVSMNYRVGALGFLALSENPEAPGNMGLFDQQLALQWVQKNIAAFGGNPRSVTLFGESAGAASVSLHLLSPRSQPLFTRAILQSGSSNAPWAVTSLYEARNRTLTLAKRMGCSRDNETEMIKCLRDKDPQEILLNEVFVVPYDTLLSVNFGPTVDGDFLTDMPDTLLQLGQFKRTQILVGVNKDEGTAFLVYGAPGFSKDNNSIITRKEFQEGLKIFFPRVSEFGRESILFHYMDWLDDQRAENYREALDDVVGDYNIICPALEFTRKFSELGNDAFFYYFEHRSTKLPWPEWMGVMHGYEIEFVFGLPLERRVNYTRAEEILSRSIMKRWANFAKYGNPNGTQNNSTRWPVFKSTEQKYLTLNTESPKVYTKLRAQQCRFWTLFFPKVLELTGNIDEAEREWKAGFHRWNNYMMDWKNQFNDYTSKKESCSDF
Method: (§1) Compounds selected through virtual screening were tested for their ability to inhibit the activity of selected biological targets. The cholinesterase-inhibitory potency of the compounds was evaluated according to Ellman’s method using AChE obtained from E. electricus (eeAChE) and BuChE obtained from equine serum (eqBuChE).
(§2) The following reagents were purchased from Sigma–Aldrich (Steinheim, Germany): 5,5′-dithiobis-(2-nitrobenzoic acid) (DNTB), acetylthiocholine iodide (ATC), butyrylthiocholine iodide (BTC), AChE from Electrophorus electricus, and BuChE from horse serum. […] The biological assay was performed using Ellman’s method which was modified for 24-well plates. For this assay, 25 µL of the tested compounds or water (in the blank samples) and 20 µL of the enzyme in 765 µL of the buffer were incubated for 5 min at 25 °C before starting the reaction. Then, 20 µL of DTNB and 20 µL of the ATC/BTC solutions were added. […] To determine the IC50 value, the absorbance measured at six different concentrations of the inhibitor was converted to % inhibition of the enzyme and plotted against the applied concentration of the inhibitor, using nonlinear regression (GraphPad Prism 5; GraphPad Software, San Diego, CA, USA). […] All the reactions were performed in triplicate. Data are expressed as the mean ± SEM.

[2] = target: T2, AChE from Electrophorus electricus (eeAChE) (Electrophorus electricus, UniProt O42275); assay: biochemical; settings: for inhibition at 10 µM: read-out: % Inhibition +/- SD (eeAChE)
T2 construct: purchased Sigma–Aldrich (Steinheim, Germany)
T2 sequence (O42275 24-633): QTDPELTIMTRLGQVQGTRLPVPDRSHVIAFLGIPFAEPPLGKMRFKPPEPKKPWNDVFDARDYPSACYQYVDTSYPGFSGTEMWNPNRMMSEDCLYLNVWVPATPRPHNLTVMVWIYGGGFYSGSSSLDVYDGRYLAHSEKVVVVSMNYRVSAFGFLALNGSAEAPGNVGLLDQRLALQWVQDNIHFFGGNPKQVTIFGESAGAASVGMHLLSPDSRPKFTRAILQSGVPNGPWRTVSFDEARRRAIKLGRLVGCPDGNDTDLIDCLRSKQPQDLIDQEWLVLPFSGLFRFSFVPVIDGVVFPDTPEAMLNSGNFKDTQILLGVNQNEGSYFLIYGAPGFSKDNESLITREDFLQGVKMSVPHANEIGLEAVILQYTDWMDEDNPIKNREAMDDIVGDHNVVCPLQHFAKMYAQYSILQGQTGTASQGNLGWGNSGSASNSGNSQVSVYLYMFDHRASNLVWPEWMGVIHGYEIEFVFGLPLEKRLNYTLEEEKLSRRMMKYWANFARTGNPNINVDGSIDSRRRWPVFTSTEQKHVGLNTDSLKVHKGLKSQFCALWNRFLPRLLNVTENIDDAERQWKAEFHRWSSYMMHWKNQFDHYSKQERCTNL
Method: as §1, §2

[3] = target: T3, eqBuChE (Equus caballus, UniProt P81908); assay: Kinetic studies of eqBuChE inhibition (Lineweaver-Burk, Cornish-Bowden plots); format: biochemical; settings: substrate butyrylthiocholine
T3 construct: BuChE obtained from equine serum (eqBuChE); purchased Sigma–Aldrich (Steinheim, Germany); host or cells: horse serum
T3 sequence (P81908 whole entry): as the sequence (P81908 whole entry) above
Method: […]. This was carried out by making use of the calculated values of Vmax and Km of the Michaelis–Menten kinetics and further through analyzing the Lineweaver–Burk and Cornish-Bowden reciprocal plots. […] […].
Kinetic studies were carried out by following Ellman’s method modified for 96-well plates, using different concentrations of the substrate. The stock solutions of ATC and BTC (0.02125 M) were prepared in water and diluted before use. […]. Lineweaver–Burk and Cornish-Bowden plots were generated using linear regression in GraphPad Prism 5 (GraphPad Software, San Diego, CA, USA). Each experiment was performed in triplicate.

[4] = target: T4, eeAChE (Electrophorus electricus, UniProt O42275); assay: Kinetic studies of eeAChE inhibition (Lineweaver-Burk, Cornish-Bowden plots); format: biochemical; settings: substrate acetylthiocholine
T4 construct: purchased Sigma–Aldrich (Steinheim, Germany)
T4 sequence (O42275 24-633): as the sequence (O42275 24-633) above
Method: This was carried out by making use of the calculated values of Vmax and Km of the Michaelis–Menten kinetics and further through analyzing the Lineweaver–Burk and Cornish-Bowden reciprocal plots.
Kinetic studies were carried out by following Ellman’s method modified for 96-well plates, using different concentrations of the substrate. The stock solutions of ATC and BTC (0.02125 M) were prepared in water and diluted before use. The aqueous stock solutions of enzymes (5 U/mL) were diluted to a final concentration of 0.384 U/mL. For each concentration of the test compounds, ATC or BTC was used at a concentration of 0.3, 0.24, 0.18, 0.12, 0.06, and 0.04 mM in the wells. Lineweaver–Burk and Cornish-Bowden plots were generated using linear regression in GraphPad Prism 5 (GraphPad Software, San Diego, CA, USA). Each experiment was performed in triplicate.

[5] = mean ± SEM of at least three experiments
[6] = read-out: IC50 eqBuChE [µM] +/- SEM
[7] = read-out: IC50 eeAChE [µM] +/- SEM

Structure (SMILES): CN1CCCCC1CCN1c2cccnc2Sc2cccnc21 (stereo not shown) [Compound 4]
- inhibition at 10 µM [1]: 57 ± 7.4%
- IC50 [1, 5]: 9.49 ± 0.33 µM
- inhibition at 10 µM [2]: 22.4 ± 1.1%

Structure (SMILES): C(#CCN1c2cccnc2Sc2cccnc21)CN1CCCCC1 [Compound 2, 10-(4-Piperidin-1-yl-but-2-ynyl)-1,6-diazaphenothiazine]
- inhibition at 10 µM [1]: 56.6 ± 2.4%
- IC50 [1, 5]: 8.94 ± 0.239 µM
- IC50 [2, 5]: 8.31 ± 0.315 µM
- inhibition at 10 µM [2]: 60.3 ± 8.8%

Structure (SMILES): CCN(CC)CC#CCN1c2ccncc2Sc2ccncc21 [Compound 11]
- inhibition at 10 µM [1]: 20.7 ± 0.9%
- inhibition at 10 µM [2]: 20.1 ± 1.4%

Structure (SMILES): Fc1ccc2c(c1)Sc1cc3ccccc3nc1N2 [Compound 19]
- inhibition at 10 µM [1]: 81 ± 1.4%
- IC50 [1, 6]: 1.02 ± 0.028 µM
- inhibition at 10 µM [2]: 6.6 ± 1.3%

Structure (SMILES): O=C1c2ccccc2C(=O)N1CCCN1c2cccnc2Sc2cccnc21 [Compound 5]
- inhibition at 10 µM [1]: 52.5 ± 5.9%
- IC50 [1, 5]: 10.1 ± 0.441 µM
- inhibition at 10 µM [2]: 7.3 ± 0.9%

Structure (SMILES): O=C1c2ccccc2C(=O)N1CCCN1c2cnccc2Sc2cccnc21 [Compound 10]
- inhibition at 10 µM [1]: 71.9 ± 4.3%
- IC50 [1, 6]: 3.67 ± 0.054 µM
- inhibition at 10 µM [2]: 49.6 ± 1.3%

Structure (SMILES): CN(C)CCCN1c2cnccc2Sc2cccnc21 [Compound 6]
- inhibition at 10 µM [1]: 85.8 ± 0.5%
- IC50 [1, 6]: 0.87 µM and 0.865 µM
- inhibition at 10 µM [2]: 20.4 ± 3.6%

Structure (SMILES): CN1c2ccc(F)cc2Sc2cc3ccccc3nc21 [Compound 20]
- inhibition at 10 µM [1]: 35.3 ± 12.3%
- inhibition at 10 µM [2]: 3 ± 1.6%

Structure (SMILES): C(#CCN1c2ccncc2Sc2ncccc21)CN1CCCC1 [Compound 16]
- inhibition at 10 µM [1]: 58.5 ± 9%
- IC50 [1, 5]: 10.4 ± 0.308 µM
- inhibition at 10 µM [2]: 21.9 ± 5.7%

Structure (SMILES): CCN(CC)CC#CCN1c2ccc(SC)cc2Sc2cc3ccccc3nc21 [Compound 24, 6-(4-diethylaminobut-2-ynyl)-9-methylthioquinobenzothiazine]
- inhibition at 10 µM [1]: 95.5 ± 0.8%
- IC50 [1, 6]: 0.535 ± 0.013 µM
- inhibition at 10 µM [2]: 83.4 ± 1.1%
- IC50 [2, 7]: 0.784 ± 0.018 µM
- type of eqBuChE inhibition [3]: noncompetitive
- type of eeAChE inhibition [4]: noncompetitive

Structure (SMILES): C(#CCN1c2cccnc2Sc2cccnc21)CN1CCOCC1 [Compound 3, 10-(4-Morpholin-4-yl-but-2-ynyl)-1,6-diazaphenothiazine]
- inhibition at 10 µM [1]: 63.6 ± 2.4%
- IC50 [1, 5]: 9.25 ± 0.275 µM
- inhibition at 10 µM [2]: 13.7 ± 1.5%

Structure (SMILES): C(#CCN1c2ccncc2Sc2ccncc21)CN1CCCC1 [Compound 12]
- inhibition at 10 µM [1]: 31.4 ± 1.7%
- inhibition at 10 µM [2]: 20.3 ± 1%

Structure (SMILES): c1cnc2c(c1)Sc1ccncc1N2CCN1CCCCC1 [Compound 8]
- inhibition at 10 µM [1]: 66 ± 3.4%
- IC50 [1, 6]: 4.44 ± 0.049 µM
- inhibition at 10 µM [2]: 33.5 ± 1.6%

Structure (SMILES): O=C1c2ccccc2C(=O)N1CCCN1c2ccncc2Sc2ncccc21 [Compound 18]
- inhibition at 10 µM [1]: 30.5 ± 5.7%
- IC50 [2, 5]: 4.26 ± 0.078 µM
- inhibition at 10 µM [2]: 72.2 ± 0.7%

Structure (SMILES): CCN(C)CC#CCN1c2ccncc2Sc2ncccc21 [Compound 14]
- inhibition at 10 µM [1]: 20.4 ± 1.9%
- inhibition at 10 µM [2]: 7.7 ± 2.1%

Structure (SMILES): CSc1ccc2c(c1)Sc1cc3ccccc3nc1N2CC#CCN1CCCC1 [Compound 25]
- inhibition at 10 µM [1]: 99.9 ± 0.7%
- IC50 [1, 6]: 0.506 ± 0.014 µM
- inhibition at 10 µM [2]: 78 ± 1.4%
- IC50 [2, 7]: 2.22 ± 0.062 µM

Structure (SMILES): C(#CCN1c2cccnc2Sc2cccnc21)CN1CCCC1 [Compound 1, 10-(4-Pyrrolidin-1-yl-but-2-ynyl)-1,6-diazaphenothiazine]
- inhibition at 10 µM [1]: 65.4 ± 3%
- IC50 [1, 5]: 5.75 ± 0.164 µM
- inhibition at 10 µM [2]: 45.4 ± 9.8%

Structure (SMILES): CN1CCCCC1CCN1c2cnccc2Sc2cccnc21 (stereo not shown) [Compound 9]
- inhibition at 10 µM [1]: 76.4 ± 0.2%
- IC50 [1, 6]: 3.03 ± 0.072 µM
- inhibition at 10 µM [2]: 58.1 ± 4.1%
- IC50 [2, 7]: 6.55 ± 0.177 µM

Structure (SMILES): CN1CCCCC1CCN1c2ccncc2Sc2ncccc21 (stereo not shown) [Compound 17]
- inhibition at 10 µM [1]: 16.1 ± 0.7%
- inhibition at 10 µM [2]: 33 ± 4.5%

Structure (SMILES): NCCCN1c2ccc(F)cc2Sc2cc3ccccc3nc21 [Compound 21]
- inhibition at 10 µM [1]: 76.3 ± 1.2%
- IC50 [1, 5]: 2.51 ± 0.047 µM
- inhibition at 10 µM [2]: 6.5 ± 2.8%

Structure (SMILES): C(#CCN1c2cnccc2Sc2cccnc21)CN1CCCC1 [Compound 7]
- inhibition at 10 µM [1]: 91.1 ± 0.8%
- IC50 [1, 6]: 0.929 ± 0.016 µM
- inhibition at 10 µM [2]: 57.3 ± 0.4%
- IC50 [2, 7]: 10 ± 0.604 µM

Structure (SMILES): CCN(CC)CC#CCN1c2ccncc2Sc2ncccc21 [Compound 15]
- inhibition at 10 µM [1]: 17.2 ± 7.3%
- inhibition at 10 µM [2]: 10.1 ± 3.1%

Structure (SMILES): NCCCCN1c2ccc(F)cc2Sc2cc3ccccc3nc21 [Compound 22]
- inhibition at 10 µM [1]: 64.7 ± 1%
- IC50 [1, 5]: 3.93 ± 0.196 µM
- inhibition at 10 µM [2]: 2.3 ± 2.1%

Structure (SMILES): Fc1ccc2c(c1)Sc1cc3ccccc3nc1N2CCN1CCCCC1 [Compound 23, 9-Fluoro-6-(1-piperidylethyl)quinobenzothiazine]
- inhibition at 10 µM [1]: 97.7 ± 0.5%
- IC50 [1, 6]: 0.46 µM and 0.463 µM
- inhibition at 10 µM [2]: 27 ± 2.8%

Structure (SMILES): C(#CCN1c2ccncc2Sc2ccncc21)CN1CCCCC1 [Compound 13]
- inhibition at 10 µM [1]: 37.6 ± 1.6%
- inhibition at 10 µM [2]: 51.6 ± 3.2%
- IC50 [2, 7]: 11.3 ± 0.464 µM
